Data from paper PMC8467576, “Novel Ubiquitin Specific Protease-13 Inhibitors Alleviate Neurodegenerative Pathology” (Metabolites, 2021).

Tests used:
Assay type in all cases: in vivo, mouse
Nissl+ cells = assay: Nissl staining neuron counts in TgA53T mice; conditions: 40 mg/Kg I.P. daily for 7 days, vs DMSO
Method: (§1) BK50118-C is one of novel small molecule inhibitors of USP13 synthesized in our laboratory. For BK50118-C treatment, approximately 15 months old (±1 month) male and female TgA53T mice were treated with intraperitoneal injection of vehicle (DMSO) or BK50118-C at the daily dosage of 10 mg/Kg or 40 mg/Kg for 7 days. Animals were age and sex-matched in their respective treatment cohorts. All animals were sacrificed after treatment. All experiments were conducted in full compliance with the recommendations of Georgetown University Animal Care and Use Committee. These experiments were conducted under animal protocol No. 2016-1194 titled, Misfolded Protein Clearance in Neurodegeneration, which was approved by the Georgetown University IACUC. Protocol Information: IACUC Protocol Number: 2016-1194. Protocol Approval Date: 14 September 2020 Expiration Date: 14 September 2023.
Nissl staining was performed using FD Cresyl Violet Solution™ Regular Strength (FD NeuroTechnologies, Cat PS102-01, Columbia, MD, USA) as per manufacturer’s instructions. Silver staining was performed using FD NeuroSilver™ (FD NeuroTechnologies, Cat PK301,) as per manufacturer’s instructions.
Suppl Figure S3. BK50118-C improved cell survivals in TgA53T mice. Male and female TgA53T mice were treated with intraperitoneal injection of vehicle or BK50118-C at the daily dosage of 40 mg/Kg for 7 days. […]
substantia nigra (SN) H) compared to corresponding vehicles A), D) and G), verified […]
(1 picture or pasted object on this page, not shown here) […]
by quantification of Nissl+ cells in cortex C), striatum F) and SN I). Asterisk indicates statistic significant difference vs vehicle. * p<0.05 vs vehicle. Two-tailed student’s t test was used for analysis. N=3-4 mice per group. All values presented as Mean±SD.

ptau396 = assay: p-Tau ser396 ELISA in TgA53T mice; conditions: 10 mg/Kg or 40 mg/Kg I.P. daily for 7 days
Method: Therefore, we also measured tau levels. There was no effect on murine tau levels (Figure 4D).
as §1
The ELISA for USP13 (MyBioSource, Cat # MBS9335287, San Diego, CA, USA), Human alpha-synuclein (Biolegend, Cat # 844101, San Diego, CA, USA) and specific p-Tau ser396 (Invitrogen, KHB7031, Waltham, MA, USA) were performed on cell or brain tissue extracts as described above according to manufacturers’ protocol.

[1] = tested on: alpha-synuclein ubiquitination; assay: Alpha-synuclein ubiquitination in TgA53T mice (IP/WB, co-localization immunostaining)
Method: Male and female TgA53T mice (15 months old) were treated daily with intraperitoneal injection of DMSO versus 10 mg/kg or 40 mg/kg BK50118-C for 7 days. […] ELISA measurement of alpha-synuclein in the same extracts (Figure 4C) confirmed that human alpha-synuclein was reduced by about 30% (10 mg/kg) and 56% (40 mg/kg), respectively (Figure 4C).
To ascertain the mechanistic effects of BK50118-C on alpha-synuclein clearance, we performed immunostaining in striatum of TgA53T mice. […] We also performed the staining of tyrosine hydroxylase (TH) in the striatum of TgA53T mice. TH is the enzyme responsible for catalyzing the rate limiting step in synthesis of L-3,4-dihydroxyphenylalanine(L-DOPA) which is a precursor for dopamine (DA). Staining of TH will help to evaluate the status of DA producing neurons in the SN and their terminals in the striatum.
BK50118-C is one of novel small molecule inhibitors of USP13 synthesized in our laboratory. For BK50118-C treatment, approximately 15 months old (±1 month) male and female TgA53T mice were treated with intraperitoneal injection of vehicle (DMSO) or BK50118-C at the daily dosage of 10 mg/Kg or 40 mg/Kg for 7 days. […]
Mouse brain tissues were homogenized in 1x STEN buffer, and the soluble fraction was isolated as indicated above. […] The supernatant was recovered and quantified by protein assay, and a total of 300 µg protein was incubated overnight at 4 °C with primary anti-alpha-synuclein (1:200, Thermofisher, AHB0261) mouse antibodies or anti-ubiquitin (1:100) (Thermo Fisher, PA3–16717, Rockford, IL, USA) antibodies in the presence of sepharose G and an IgG control with primary antibodies. […]
Immunohistochemistry was performed on the 20 µm thick brain sections for evaluation of ubiquitination of alpha-synuclein. […] The optic densitometry of co-localization of ubiquitin with alpha-synuclein was measured using Image J. Tyrosine hydroxylase (TH) is the limiting enzyme in DA synthesis, so probing for TH+ neurons will help to evaluate the status of DA producing neurons in the SN and their terminals in the striatum. […]

[2] = midbrain extracts, 40 mg/kg vs DMSO and 10 mg/kg, 7 days

For `Fc1ccc2nccc(OCc3ccccc3)c2c1` [BK50118-C, 4-benzyloxy-6-fluoroquinoline], the “neuron counts (Nissl+ cells)” value (Nissl+ cells; cortex) was “significantly increased”, the “neuron counts (Nissl+ cells)” value (Nissl+ cells; striatum) was “significantly increased” and the “neuron counts (Nissl+ cells)” value (Nissl+ cells; substantia nigra (SN)) was “significantly increased”. For the same compound, the “effect on murine tau levels (ptau396 ELISA)” value (ptau396) was “no effect”, the “ubiquitination after immunoprecipitation of alpha-synuclein followed by ubiquitin WB” value [1, 2] was “increased ubiquitination” and the “ubiquitination of alpha-synuclein after immunoprecipitation of ubiquitin followed by alpha-synuclein WB” value [1, 2] was “increased ubiquitination of alpha-synuclein”. For the same compound, the “increase in alpha-synuclein-ubiquitin co-localization (optic density)” value ([1]; striatum, 40 mg/Kg I.P. daily for 7 days, vs DMSO) was 130%.
